# Source: PubChem BioAssay AID1963443 (Molecular Pharmacology Branch, DTP, NCI, 2024)
# “And” between values parts separate entries of the source, which are not always exact repeats. Identical values can stand only once.
# Test system: MDA-MB-231 complex spheroids, growth inhibition
# Assay: Anticancer human tumor MDA-MB-231 cell line growth inhibition [Asc];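 note: spheroids exposed to compounds for 7 days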
# Details: for viability, T/C: stronger effect = lower value
# Description: Multicellular complex tumor spheroid response to apoptosis pathway targeting inhibitors Alrizomadlin, Pelcitoclax, and Dasminapant in combination with a variety of drugs and investigational agents in selected tumor cell lines
# The MDM2 inhibitor alrizomadlin, the Bcl-2/Bcl-xL inhibitor pelcitoclax, and the IAPs inhibitor dasminapant were evaluated both individually and in combination with standard of care and investigational anticancer small molecules within a complex spheroid model of solid tumors. . Complex spheroids include a stromal component modeled by human endothelial cells (HUVEC) and fibroblasts modeled by human mesenchymal stem cells (MSCs). The concentration ranges selected for each drug and investigational agent were based upon clinically achievable concentrations if the clinical Cmax of the agent was known.
# Compounds. The drugs and investigational agents: alrizomadlin (APG-115; NSC831270), pelcitoclax (APG-1252; NSC835773), dasminapant (APG-1387;NSC834197), TAK-243 (NSC785004), copanlisib (NSC809693), olaparib (NSC753686), talazoparib (NSC767125), cobimetinib (NSC 768068), eltanexor (KPT-8602, NSC 794443), abemaciclib (NSC 768073), sotorasib (NSC818433), adagrasib (NSC 831453), MRTX-1133 (NSC 836407), Iadademestat (ORY1001, NSC 806812), and RMC-4630 (NSC839698), were obtained from the NCI Developmental Therapeutics Program Chemical Repository. The FDA-approved anticancer drug set is available from the Developmental Therapeutics Program at https://dtp.cancer.gov/organization/dscb/obtaining/available plates.htm. […] The stock solutions were prepared in dimethyl sulfoxide (DMSO, Sigma-Aldrich, St. Louis, MO, cat. D2650) at 800-fold the tested concentration and stored at -70 degrees C prior to their use. All drugs and investigational agents were tested over a range starting from a high concentration at or near the clinical Cmax and decreasing in half-log increments. If the clinical Cmax for an agent had not been determined, the highest concentration tested was 10 microM.
# The patient-derived cancer (PDC) cell lines include five colon adenocarcinomas: 186277-243-T-J2-PDC, 616215-338-R-J1-PDC, 439559-082-T-J2-PDC, 463943-066-T-J2-PDC, and 519858-162-T-J1-PDC; three pancreatic carcinomas: 323965-272-R-J2-PDC, 521955-158-R6-J3-PDC, and 521955-158-R2-J5-PDC; two uterine sarcomas: 327498-152-R-J2-PDC and 993429-296-R-J1-PDC; two rhabdomyosarcomas: 755483-174-R-J1-PDC and 772245-204-R-J1-PDC; two soft tissue sarcomas: 126254-015-R-J1-PDC and 494315-158-R-J1-PDC; two malignant fibrous histiocytomas: 317291-083-R-J1-PDC and 596521-263-R-J1-PDC; two breast carcinomas: 171881-019-R-J1-PDC and 885512-296-R-J2-PDC; and one ovarian carcinoma: 6556581-035-R-J-PDC were obtained from the NCI PDMR, (https://pdmr.cancer.gov). The established cell lines HSSY-2 synovial sarcoma (RRID:CVCL 8719), SYO-1 synovial sarcoma (RRID:CVCL_7146), MPNST malignant peripheral neural sheath tumor were obtained from the Sloan Kettering Institute. The following established cell lines were purchased from the American Type Culture Collection (ATCC, Manassas, VA), Sor the received from the NCI repository:, PANC-1 pancreatic carcinoma (CRL-1469, RRID:CVCL_0480), OVCAR-5 ovarian carcinoma (RRID:CVCL_1628), OVCAR-8 ovarian carcinoma (RRID:CVCL_1629), , MCF-7 breast carcinoma (CRL-12584, RRID:CVCL_0031), MDA-MB-231 breast carcinoma (CRL-12532, RRID:CVCL_0062), NCI-H1876 small cell lung carcinoma (CRL-5902, RRID:CVCL_1503), NCI-H510A small cell lung carcinoma (HTB-184, RRID:CVCL_1565), NCI-H1417 (CRL-5869, RRID:CVCL_1469), and NCI-H196 small cell lung carcinoma (CRL-5823, RRID:CVCL_1509). Dr. Peter Houghton (Greehey Children's Cancer Research Institute, University of Texas Health Science Center, San Antonio, TX) provided Rh-18 rhabdomyosarcoma (RRID:CVCL_1659). Pooled donor human umbilical vein endothelial cells (HUVEC, Lonza, cat. CC-2519) and human mesenchymal stem cells (hMSC, Lonza, cat. PT-2501) were purchased from Lonza (Walkersville, MD).
# Cell Culture. […]
SMILES,IC50 (curve of compound),"viability, T/C (compound 0.0316 µM)","viability, T/C (compound 0.1 µM)","viability, T/C (compound 0.316 µM)","viability, T/C (compound 1 µM)","viability, T/C (compound 3.16 µM)","viability, T/C (compound 0.00316 µM)","viability, T/C (compound 0.01 µM)",also measured
C=C(F)C(=O)N1CCN(c2nc(OCC3CCCN3C)nc3c2CCN(c2cccc4cccc(Cl)c24)C3)CC1CC#N (stereo not given),3.51 µM and 3.28 µM and 4.78 µM,101% (2×) and 104%,103% and 99.7% and 93.1%,103% and 98.3% and 110%,101% and 94.9% and 103%,54.9% and 51.6% and 77.3%,,,"viability, T/C (compound 10 µM): 0.35% and 0.45% and 1.25%"
C=CC(=O)N1CCN(c2nc(=O)n(-c3c(C)ccnc3C(C)C)c3nc(-c4c(O)cccc4F)c(F)cc23)C(C)C1 (stereo not given),> 10 µM,101% and 102% and 103%,104% and 105% and 103%,106% (2×) and 107%,107% and 109% and 111%,119% and 117% and 113%,,,"viability, T/C (compound 10 µM): 119% and 121% and 110%"
CCN1CCN(Cc2ccc(Nc3ncc(F)c(-c4cc(F)c5nc(C)n(C(C)C)c5c4)n3)nc2)CC1,0.882 µM and 0.238 µM and > 1 µM,78.5% and 79.9% and 88.6%,64.9% and 54.5% and 74.4%,51.7% and 48% and 64.4%,50.2% and 48.8% and 72%,,91.9% and 79.5% and 77%,92.6% and 86.9% and 80%,
COc1c(OCCCN2CCOCC2)ccc2c3n(c(=NC(=O)c4cnc(N)nc4)nc12)CCN3,0.0825 µM and 0.0916 µM and 0.226 µM,64.8% and 66.8% and 75.9%,47.6% and 48.4% and 60%,36.6% and 36.7% and 45.5%,32% and 32.1% and 41.6%,,83.7% and 92% and 96.1%,85.2% and 80.5% and 92.2%,
Cc1nc(N2CCC3(CC2)COC(C)C3N)c(CO)nc1Sc1ccnc(N)c1Cl (stereo not given),0.386 µM and 0.285 µM and 0.373 µM,,,,,,,,"viability, T/C (compound 0.00949 µM): 122% and 98.3% and 98%; viability, T/C (compound 0.03 µM): 117% and 93.5% and 101%; viability, T/C (compound 0.0949 µM): 111% and 94.2% and 94.4%; viability, T/C (compound 0.3 µM): 63.3% and 47.9% and 61.2%; viability, T/C (compound 0.949 µM): 3.21% and 2.3% and 2.69%; viability, T/C (compound 3 µM): 0.89% and 1.08% and 0.76%"
NC(=O)C(=Cn1cnc(-c2cc(C(F)(F)F)cc(C(F)(F)F)c2)n1)c1cncnc1,0.0724 µM and 0.0615 µM and 0.0749 µM,,,,,,,,"viability, T/C (compound 0.000949 µM): 95.7% and 87.8% and 73.5%; viability, T/C (compound 0.003 µM): 92.4% and 95.1% and 81.3%; viability, T/C (compound 0.00949 µM): 84.7% and 87.1% and 84.5%; viability, T/C (compound 0.03 µM): 57.8% and 56.5% and 60.4%; viability, T/C (compound 0.0949 µM): 50.5% and 47% and 48.1%; viability, T/C (compound 0.3 µM): 14.4% and 21.2% and 21.8%"

# Now from value to compound, other results behind:
IC50 (curve of compound),SMILES,"viability, T/C (compound 0.0316 µM)","viability, T/C (compound 0.1 µM)","viability, T/C (compound 0.316 µM)","viability, T/C (compound 1 µM)","viability, T/C (compound 3.16 µM)","viability, T/C (compound 0.00316 µM)","viability, T/C (compound 0.01 µM)",also measured
2.17 µM and > 10 µM,C#Cc1c(F)ccc2cc(O)cc(-c3ncc4c(N5CC6CCC(C5)N6)nc(OCC56CCCN5CC(F)C6)nc4c3F)c12 (stereo not given),120% and 100% and 106%,95.9% and 97.5% and 97.1%,111% and 98.8% and 91.7%,66.2% and 72.6% and 72.7%,48.7% and 64.1% and 62.1%,,,"viability, T/C (compound 10 µM): 35.2% and 51.7% and 50.2%"
> 3 µM,CCN1C(C(=O)NC23CCC(C(=O)O)(CC2)CC3)C(c2cccc(Cl)c2F)C2(C(=O)Nc3cc(Cl)ccc32)C12CCCCC2 (stereo not given),,,,,,,,"viability, T/C (compound 0.00949 µM): 96.1% and 106%; viability, T/C (compound 0.03 µM): 97.5% [middle of 15 runs]; viability, T/C (compound 0.0949 µM): 104% [middle of 15 runs]; viability, T/C (compound 0.3 µM): 105% [middle of 15 runs]; viability, T/C (compound 0.949 µM): 112% [middle of 15 runs]; IC50 (compound alone, run of 10/11/2022): > 3 µM"
< 0.00316 µM,CNC(C)C(=O)NC1CN(S(=O)(=O)c2cccc(S(=O)(=O)N3CCC4CCC(C(=O)NC(c5ccccc5)c5ccccc5)N4C(=O)C(NC(=O)C(C)NC)C3)c2)CCC2CCC(C(=O)NC(c3ccccc3)c3ccccc3)N2C1=O (stereo not given),1.55% [middle of 14 runs],1.38% [middle of 12 runs],,,,5.11% and 4.58% and 5.25%,2.25% [middle of 14 runs],"IC50 (compound alone, run of 10/24/2022): < 0.01 µM; IC50 (compound alone, run of 11/15/2022): < 0.00316 µM"
> 0.1 µM,Cn1ncnc1[C@H]1c2n[nH]c(=O)c3cc(F)cc(c23)N[C@@H]1c1ccc(F)cc1,89.1% and 103% and 89.5%,84.4% and 100% and 74.3%,,,,92.4% and 90.3% and 77.6%,91.5% and 85.7% and 87.9%,"viability, T/C (compound 0.000316 µM): 101% and 114% and 108%; viability, T/C (compound 0.001 µM): 100% and 110% and 86.8%"
> 0.1 µM,NC1CCC(NC2CC2c2ccccc2)CC1 (stereo not given),103% and 96.8% and 107%,104% and 98.3% and 99.8%,,,,105% and 98.7% and 107%,105% and 98.6% and 101%,"viability, T/C (compound 0.000316 µM): 102% and 98.5% and 104%; viability, T/C (compound 0.001 µM): 108% and 99% and 105%"
> 10 µM and 3.18 µM,O=C(c1cc(Cc2n[nH]c(=O)c3ccccc23)ccc1F)N1CCN(C(=O)C2CC2)CC1,95.2% and 99.3% and 106%,97.2% and 86.9% and 110%,92.7% and 75.9% and 84.1%,90.8% and 88.9% and 83.6%,87% and 88.3% and 49%,,,
0.037 µM and 0.0831 µM and 0.0136 µM,O=C(c1ccc(F)c(F)c1Nc1ccc(I)cc1F)N1CC(O)([C@@H]2CCCCN2)C1,47.7% and 58.3% and 33.5%,43.8% and 50.7% and 21.9%,29.6% and 30.4% and 22.2%,2.86% and 5.09% and 7.27%,,86.9% and 79.8% and 88.6%,56.7% and 67.7% and 55.5%,
